Laboratory results reported in patent US5126344A, “Diazine derivatives and pharmaceutical use” (Imperial Chemical Industries PLC, priority 1989, dated 1992).

How the values were obtained:
[1] = test system: pressor responses induced by AII; experiment: Test C: antagonism of AII-induced pressor responses in terminally-anaesthetised or conscious rats; format: in vivo; conditions: iv, rat, i.v. administration
Experimental: This in vivo test involves using terminally-anaesthetised or conscious rats in which an arterial catheter has been implanted under anaesthesia for the measurement of changes in blood pressure. The AII antagonistic effects of the test compound following oral or parenteral administration, are assessed against pressor responses induced by AII. To ensure that the effect is specific the effect of the test compound on vasopressin-induced pressor responses may also be determined in the same preparation.

[2] = target: T1, angiotensin II (AII) receptors (Cavia porcellus, UniProt Q9WV26); experiment: Test A: displacement of radiolabelled AII binding to cell surface membrane fraction from guinea pig adrenal gland; conditions: guinea pig adrenal gland membranes, read-out: IC50 (concentration for 50% displacement of radiolabelled AII binding)
T1 construct: the source of cell surface membranes is the guinea pig adrenal gland; from tissue; host or cells: guinea pig adrenal gland, cell surface membrane fraction
T1 sequence (Q9WV26 1-359): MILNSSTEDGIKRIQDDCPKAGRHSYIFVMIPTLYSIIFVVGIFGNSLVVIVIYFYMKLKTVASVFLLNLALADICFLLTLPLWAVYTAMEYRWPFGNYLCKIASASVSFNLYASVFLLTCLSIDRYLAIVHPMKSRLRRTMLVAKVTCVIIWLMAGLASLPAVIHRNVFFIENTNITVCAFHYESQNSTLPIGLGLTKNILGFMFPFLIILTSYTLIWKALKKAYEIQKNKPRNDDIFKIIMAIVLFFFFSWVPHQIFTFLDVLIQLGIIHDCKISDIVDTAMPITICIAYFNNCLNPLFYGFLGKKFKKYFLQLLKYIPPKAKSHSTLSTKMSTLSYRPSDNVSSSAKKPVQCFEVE
Experimental: This in vitro procedure involves the incubation of the test compound initially at a concentration of 100 micromolar (or less) in a buffered mixture containing fixed concentrations of radiolabelled AII and a cell surface membrane fraction prepared from a suitable angiotensin target tissue. In this test, the source of cell surface membranes is the guinea pig adrenal gland which is well known to respond to AII. Interaction of the radiolabelled AII with its receptors (assessed as radiolabel bound to the particulate membrane fraction following removal of unbound radiolabel by a rapid filtration procedure such as is standard in such studies) is antagonized by compounds which also bind to the membrane receptor sites and the degree of antagonism (observed in the test as displacement of membrane-bound radioactivity) is determined readily by comparing the receptor-bound radioactivity in the presence of the test compound at the specified test concentration with a control value determined in the absence of the test compound. Using this procedure compounds showing at least 50% displacement of radiolabelled AII binding at a concentration of 10^-4 M are retested at lower concentrations to determine their potency. […]

SMILES: CCc1cc(OCc2ccc(-c3ccccc3-c3nnn[nH]3)cc2)c2nc(OC)ccc2n1.Cl [Example 4, 2-ethyl-6-methoxy-4-[(2'-(1H-tetrazol-5-yl)-biphenyl-4-yl)methoxy]-1,5-naphthyridine hydrochloride]
- ED50 [1]: 0.6 mg/kg
- IC50 [2]: 0.02 µM
